“And” between values parts separate entries of the source, which are not always exact repeats. Equal values may be shown once.
System: DBA/1 mice, CIA model
Experiment: Collagen-induced arthritis model in mice
Type: in vivo, mouse
Conditions: BID
Procedure: Collagen-induced arthritis (CIA) model was performed at Bolder BioPATH, USA. Study design and animal usage was approved by Bolder BioPATH’s Institutional Animal Care and Use Committee. CIA was induced in 6–7 week old male DBA/1 mice with body weight of 15–26 g (Harlan, Inc) by intradermal injection of Freund’s Complete Adjuvant (Difco) containing bovine type II collagen (Bolder BioPATH) on day 0 and again on day 21 according to the standard protocol. […] After that mice were randomized into six groups: a control group of four, vehicle group and four treatment groups of ten mice each. […] Each paw was scored daily for inflammation. Therapeutic and prophylactic paws were considered. At study termination mice were euthanized by CO2 inhalation followed by cervical dislocation. Fore paws, hind paws, and knees were removed for microscopy.
Mice were weighed on arthritis days 1, 3, 5, 7, 9, and 11 (prior to necropsy). Daily clinical scores were given for each of the paws (right front, left front, right rear, left rear) on days 1–11 using the following criteria:
After 1–2 days in fixative and 4–5 days in 5% formic acid for decalcification, tissues were trimmed, processed for paraffin embedding, sectioned at 8 µm and stained with toluidine blue. Hind paws and knees were embedded and sectioned in the frontal plane. Two joints from each animal were processed for histopathology evaluation. The joints were then scored by two independent readers as indicated below. When scoring, severity of changes as well as number of individual joints affected were considered. When only 1–3 joints of the paws or ankles out of a possibility of numerous metacarpal/metatarsal/digit or tarsal/tibiotarsal joints were affected, an arbitrary assignment of a maximum score of 1, 2 or 3 for parameters below was given depending on severity of changes. If more than 3 joints were involved, the criteria below were applied to the most severely affected/majority of joints.

COc1cc(Nc2ncnc(Nc3cc4c(cn3)NC(=O)C(C)(C)O4)n2)cc(OC)c1OC [MT-SYK-03]
% inhibition to Vehicle, Paw Score Total AUC Sum (d1-11) (103 mg/kg PO): 12%
Paw Score Total AUC Sum (d1-11) (103 mg/kg PO, group Mean): 28.48
Paw Score Total AUC Sum (d1-11) (103 mg/kg PO, individual animals): 27.25 and 32.38 and 26.00 and 35.88 and 12.50 and 29.00 and 37.38 and 33.00 and 33.88 and 17.50
% inhibition to Vehicle, Average Paw Score (Day 1, 103 mg/kg PO): 0%
Average Paw Score Per Arthritis Day (All Paws) (Day 1, 103 mg/kg PO, group Mean): 0.80
Average Paw Score Per Arthritis Day (All Paws) (Day 1, 103 mg/kg PO, individual animals, 103 mg/kg): 0.50 and 1.50 and 1.00
% inhibition to Vehicle, Average Paw Score (Day 2, 103 mg/kg PO): 18%
Average Paw Score Per Arthritis Day (All Paws) (Day 2, 103 mg/kg PO, group Mean): 1.50
Average Paw Score Per Arthritis Day (All Paws) (Day 2, 103 mg/kg PO, individual animals, 103 mg/kg): 1.25 and 2.00 and 1.00 and 2.50 and 1.50 and 0.50
% inhibition to Vehicle, Average Paw Score (Day 3, 103 mg/kg PO): 15%
Average Paw Score Per Arthritis Day (All Paws) (Day 3, 103 mg/kg PO, group Mean): 2.25
Average Paw Score Per Arthritis Day (All Paws) (Day 3, 103 mg/kg PO, individual animals, 103 mg/kg): 2.25 and 3.00 and 1.25 and 3.25 and 2.00 and 2.75 and 2.50
% inhibition to Vehicle, Average Paw Score (Day 4, 103 mg/kg PO): 13%
Average Paw Score Per Arthritis Day (All Paws) (Day 4, 103 mg/kg PO, group Mean): 2.75
Average Paw Score Per Arthritis Day (All Paws) (Day 4, 103 mg/kg PO, individual animals, 103 mg/kg): 2.75 and 3.25 and 2.00 and 3.50 and 1.25 and 3.00
% inhibition to Vehicle, Average Paw Score (Day 5, 103 mg/kg PO): 12%
Average Paw Score Per Arthritis Day (All Paws) (Day 5, 103 mg/kg PO, group Mean): 3.08
Average Paw Score Per Arthritis Day (All Paws) (Day 5, 103 mg/kg PO, individual animals, 103 mg/kg): 3.00 and 3.50 and 2.75 and 3.75 and 1.25 and 4.00 and 2.00
% inhibition to Vehicle, Average Paw Score (Day 6, 103 mg/kg PO): 11%
Average Paw Score Per Arthritis Day (All Paws) (Day 6, 103 mg/kg PO, group Mean): 3.18
Average Paw Score Per Arthritis Day (All Paws) (Day 6, 103 mg/kg PO, individual animals, 103 mg/kg): 3.00 and 3.50 and 3.75 and 1.25 and 4.00 and 2.25
% inhibition to Vehicle, Average Paw Score (Day 7, 103 mg/kg PO): 10%
Average Paw Score Per Arthritis Day (All Paws) (Day 7, 103 mg/kg PO, group Mean): 3.28
Average Paw Score Per Arthritis Day (All Paws) (Day 7, 103 mg/kg PO, individual animals, 103 mg/kg): 3.00 and 3.50 and 3.25 and 4.00 and 1.25 and 4.25 and 3.75 and 2.25
% inhibition to Vehicle, Average Paw Score (Day 8, 103 mg/kg PO): 12%
Average Paw Score Per Arthritis Day (All Paws) (Day 8, 103 mg/kg PO, group Mean): 3.33
Average Paw Score Per Arthritis Day (All Paws) (Day 8, 103 mg/kg PO, individual animals, 103 mg/kg): 3.25 and 3.50 and 4.00 and 1.25 and 4.50 and 3.75 and 4.25 and 2.00
% inhibition to Vehicle, Average Paw Score (Day 9, 103 mg/kg PO): 13%
Average Paw Score Per Arthritis Day (All Paws) (Day 9, 103 mg/kg PO, group Mean): 3.43
Average Paw Score Per Arthritis Day (All Paws) (Day 9, 103 mg/kg PO, individual animals, 103 mg/kg): 3.25 and 3.75 and 3.50 and 4.25 and 1.50 and 4.50 and 2.00
% inhibition to Vehicle, Average Paw Score (Day 10, 103 mg/kg PO): 13%
Average Paw Score Per Arthritis Day (All Paws) (Day 10, 103 mg/kg PO, group Mean): 3.53
Average Paw Score Per Arthritis Day (All Paws) (Day 10, 103 mg/kg PO, individual animals, 103 mg/kg): 3.50 and 3.75 and 4.25 and 1.50 and 4.75 and 4.00 and 2.00
% inhibition to Vehicle, Average Paw Score (Day 11, 103 mg/kg PO): 12%
Average Paw Score Per Arthritis Day (All Paws) (Day 11, 103 mg/kg PO, group Mean): 3.55
Average Paw Score Per Arthritis Day (All Paws) (Day 11, 103 mg/kg PO, individual animals, 103 mg/kg): 3.50 and 3.75 and 4.00 and 4.25 and 1.50 and 4.75 and 2.00
% inhibition to Vehicle, Total AUC Sum (d1-11) (MT-SYK-03 103 mg/kg PO): 18%
Summed Prophylactic (Non-Enrollment) Paw Score (MT-SYK-03 103 mg/kg PO, Day 1, group mean): 0.00
Summed Prophylactic (Non-Enrollment) Paw Score (MT-SYK-03 103 mg/kg PO, Day 1, individual animals): 0
% inhibition to Vehicle, Summed Prophylactic (Non-Enrollment) Paw Score (MT-SYK-03 103 mg/kg PO, Day 2): 15%
Summed Prophylactic (Non-Enrollment) Paw Score (MT-SYK-03 103 mg/kg PO, Day 2, group mean): 2.20
Summed Prophylactic (Non-Enrollment) Paw Score (MT-SYK-03 103 mg/kg PO, Day 2, individual animals, 103 mg/kg): 2 and 4 and 1 and 3 and 0
% inhibition to Vehicle, Summed Prophylactic (Non-Enrollment) Paw Score (MT-SYK-03 103 mg/kg PO, Day 3): 23%
Summed Prophylactic (Non-Enrollment) Paw Score (MT-SYK-03 103 mg/kg PO, Day 3, group mean): 3.60
Summed Prophylactic (Non-Enrollment) Paw Score (MT-SYK-03 103 mg/kg PO, Day 3, individual animals, 103 mg/kg): 5 and 3 and 2 and 1 and 6 and 4
% inhibition to Vehicle, Summed Prophylactic (Non-Enrollment) Paw Score (MT-SYK-03 103 mg/kg PO, Day 4): 19%
Summed Prophylactic (Non-Enrollment) Paw Score (MT-SYK-03 103 mg/kg PO, Day 4, group mean): 5.20
Summed Prophylactic (Non-Enrollment) Paw Score (MT-SYK-03 103 mg/kg PO, Day 4, individual animals, 103 mg/kg): 7 and 3 and 5 and 6 and 1 and 4
% inhibition to Vehicle, Summed Prophylactic (Non-Enrollment) Paw Score (MT-SYK-03 103 mg/kg PO, Day 5): 16%
Summed Prophylactic (Non-Enrollment) Paw Score (MT-SYK-03 103 mg/kg PO, Day 5, group mean): 6.10
Summed Prophylactic (Non-Enrollment) Paw Score (MT-SYK-03 103 mg/kg PO, Day 5, individual animals, 103 mg/kg): 8 and 3 and 6 and 1 and 10 and 7 and 4
% inhibition to Vehicle, Summed Prophylactic (Non-Enrollment) Paw Score (MT-SYK-03 103 mg/kg PO, Day 6): 16%
Summed Prophylactic (Non-Enrollment) Paw Score (MT-SYK-03 103 mg/kg PO, Day 6, group mean): 6.40
Summed Prophylactic (Non-Enrollment) Paw Score (MT-SYK-03 103 mg/kg PO, Day 6, individual animals, 103 mg/kg): 8 and 3 and 9 and 6 and 1 and 10 and 5
% inhibition to Vehicle, Summed Prophylactic (Non-Enrollment) Paw Score (MT-SYK-03 103 mg/kg PO, Day 7): 17%
Summed Prophylactic (Non-Enrollment) Paw Score (MT-SYK-03 103 mg/kg PO, Day 7, group mean): 6.50
Summed Prophylactic (Non-Enrollment) Paw Score (MT-SYK-03 103 mg/kg PO, Day 7, individual animals, 103 mg/kg): 8 and 3 and 9 and 7 and 1 and 10 and 6 and 5
% inhibition to Vehicle, Summed Prophylactic (Non-Enrollment) Paw Score (MT-SYK-03 103 mg/kg PO, Day 8): 20%
Summed Prophylactic (Non-Enrollment) Paw Score (MT-SYK-03 103 mg/kg PO, Day 8, group mean): 6.50
Summed Prophylactic (Non-Enrollment) Paw Score (MT-SYK-03 103 mg/kg PO, Day 8, individual animals, 103 mg/kg): 8 and 3 and 9 and 7 and 1 and 10 and 6 and 5
% inhibition to Vehicle, Summed Prophylactic (Non-Enrollment) Paw Score (MT-SYK-03 103 mg/kg PO, Day 9): 20%
Summed Prophylactic (Non-Enrollment) Paw Score (MT-SYK-03 103 mg/kg PO, Day 9, group mean): 6.80
Summed Prophylactic (Non-Enrollment) Paw Score (MT-SYK-03 103 mg/kg PO, Day 9, individual animals, 103 mg/kg): 8 and 3 and 10 and 2 and 6 and 5
% inhibition to Vehicle, Summed Prophylactic (Non-Enrollment) Paw Score (MT-SYK-03 103 mg/kg PO, Day 10): 18%
Summed Prophylactic (Non-Enrollment) Paw Score (MT-SYK-03 103 mg/kg PO, Day 10, group mean): 7.20
Summed Prophylactic (Non-Enrollment) Paw Score (MT-SYK-03 103 mg/kg PO, Day 10, individual animals, 103 mg/kg): 9 and 3 and 11 and 8 and 2 and 10 and 7 and 5

Reference: paper PMC8632988, “Inhibition of SYK and cSrc kinases can protect bone and cartilage in preclinical models of osteoarthritis and rheumatoid arthritis” (Scientific Reports, 2021)
